Reference: US8541473B2, “3-aminoxalyl-aminobenzamide derivatives and insecticidal and miticidal agents containing same as active ingredient” (Agro-Kanesho Co., Ltd., priority 2009, dated 2013)

Columns and labels:
Assay type in all cases: in vivo
[1] = tested on: larvae of Plutella xylostella; assay: Insecticidal effect on larvae of Plutella xylostella (spray on potted Chinese cabbage); settings: for rate of killed insects (larvae): 5 days after release of larvae, agonized larvae regarded as killed
Description: The seeds of Chinese cabbage were sowed in a pot and then the seedlings were raised over 3 weeks. A water-diluted emulsion prepared according to the procedures used in the foregoing drug-preparation Example 1 was sufficiently sprayed on the leaves of these potted plants using an air brush (one concentration, once repeated). After the drug-containing liquid was air-dried, the plants were kept in a thermostatic chamber maintained at 25° C. and the larvae of the insect were set free. After 5 days from the release of the larvae, the latter was examined for whether they were died or not and whether they were in agony or not and the rates of killed insects (larvae) (%) were determined, while the agonized larvae were regarded as killed ones. In this respect, the comparative compounds used in this test were compounds A and B disclosed in JP-A-2006-306771 (Patent Document 25).

nymphs of Myzus persicae = assay: Effect of killing larvae of Myzus persicae (leaf piece immersion); settings: for rate of killed nymphs: 7th day after treatment, agonized nymphs regarded as killed
Description: Three each of adults of Myzus persicae were inoculated on a cut piece (having a size of 3 cm×4 cm) of the leaf of Chinese cabbage and they were made breed for 48 hours within a thermostatic chamber maintained at a temperature of 25° C. After the removal of the adults, each cut piece of the leaf was immersed in a water-diluted emulsion prepared according to the same procedures used in the foregoing Drug-Preparation Example 1 for 5 seconds, and then kept in a thermostatic chamber maintained at 25° C. On 7th day after the foregoing treatment, the nymphs were inspected for whether they were died or not and whether they were in agony or not and the rates (%) of killed nymphs of the plant lice were determined, while the agonized nymphs were regarded as killed ones. In this respect, the comparative compounds used in this test were compounds A and B disclosed in JP-A-2006-306771.

[2] = tested on: female adults of Tetranychus urticae; assay: Miticidal effect on adults of Tetranychus urticae (spray on bean leaf-disks); settings: for rate of killed adults: 4 days after drug-spray, agonized adults regarded as killed
Description: A polyethylene cup having a volume of 430 ml and filled with water was covered with a cap in which a hole (diameter: about 5 mm) had been formed at the center thereof. A cut having a width of about 5 mm was made on a circular filter paper having a diameter of 6.5 cm, the strip-like portion of the filter paper, which hung down, was inserted into the cup through the hole thereof in such a manner that the portion was immersed in the water contained in the cup, and absorbent cotton was put on the filter paper so that the water in the cup was always supplied to the absorbent cotton. Then, two leaf-disks (2 cm×5 cm) prepared from the primary leaves of bean were put on the absorbent cotton and then these two leaf-disks were inoculated with 10 female adults of Tetranychus urticae. This cup was placed in a cylinder of acrylic resin having a height of 50 cm and an inner diameter of 10 cm and a water-diluted emulsion prepared according to the same procedures used in the foregoing drug-preparation Example 1 was then sprayed on each cup in an amount of 1.35 ml per cup using an air brush (one concentration, once repeated). After the agricultural chemical was sprayed, the cups were kept in a thermostatic chamber maintained at a temperature of 25° C. After 4 days from the drug-spray, the adults were examined, under the observation by a prism binocular, for whether they were died or not and whether they were in agony or not and the rates of killed mites (adults) (%) were determined, while the agonized adults were regarded as killed ones. In this respect, the comparative compounds used in this test were compounds A and B disclosed in JP-A-2006-306771.

[3] = comparative compounds, result in words, stated against the 50 ppm result

Compound: Cc1cc(C(F)(C(F)(F)F)C(F)(F)F)cc(C)c1NC(=O)c1cccc(NC(=O)C(N)=O)c1 [Compound 1-1]
- rate of killed insects (larvae) ([1]; 500 ppm): 100%

Compound: CCN(C)C(=O)C(=O)Nc1cccc(C(=O)Nc2c(Cl)cc(C(F)(C(F)(F)F)C(F)(F)F)cc2OC(F)(F)F)c1 [Compound 1-115]
- rate of killed nymphs (nymphs of Myzus persicae; 12.5 ppm): 100%

Compound: CCc1cc(C(F)(C(F)(F)F)C(F)(F)F)cc(C)c1NC(=O)c1cccc(NC(=O)C(=O)N(C)C(C)(C)C)c1 [Compound 1-44]
- rate of killed insects (larvae) ([1]; 5 ppm): 100%
- rate of killed adults ([2]; 5 ppm): 100%
- rate of killed nymphs (nymphs of Myzus persicae; 50 ppm): 100%

Compound: CCc1cc(C(F)(C(F)(F)F)C(F)(F)F)cc(C)c1NC(=O)c1cccc(NC(=O)C(=O)N(C)CC(F)(F)F)c1 [Compound 1-87]
- rate of killed nymphs (nymphs of Myzus persicae; 5 ppm): 100%
- rate of killed nymphs (nymphs of Myzus persicae; 50 ppm): 100%

Compound: Cc1cc(C(F)(C(F)(F)F)C(F)(F)F)cc(C)c1NC(=O)c1cccc(NC(=O)C(=O)N2CCCC2)c1 [Compound 1-33, 3-(pyrrolidin-1-yl-oxalylamino)-N-(2,6-dimethyl-4-heptafluoroisopropyl)phenylbenzamide]
- rate of killed nymphs (nymphs of Myzus persicae; 50 ppm): 100%

Compound: CCc1cc(C(F)(C(F)(F)F)C(F)(F)F)cc(C)c1NC(=O)c1cccc(NC(=O)C(=O)N(C)CC(F)F)c1 [Compound 1-100]
- rate of killed adults ([2]; 12.5 ppm): 100%

Compound: CCN(C)C(=O)C(=O)Nc1cccc(C(=O)Nc2c(Br)cc(C(F)(C(F)(F)F)C(F)(F)F)cc2C(C)C)c1 [Compound 1-74]
- rate of killed adults ([2]; 50 ppm): 100%

Compound: CCc1cc(C(F)(C(F)(F)F)C(F)(F)F)cc(C)c1NC(=O)c1cccc(NC(=O)C(=O)N(C)C(C)C)c1 [Compound 1-40]
- rate of killed adults ([2]; 5 ppm): 100%

Compound: CCc1cc(C(F)(C(F)(F)F)C(F)(F)F)cc(C)c1NC(=O)c1cccc(NC(=O)C(=O)N(C)CCCl)c1 [Compound 1-78]
- rate of killed adults ([2]; 50 ppm): 100%

Compound: CCc1cc(C(F)(C(F)(F)F)C(F)(F)F)cc(C)c1NC(=O)c1cccc(NC(=O)C(=O)N(C)C2CCCC2)c1 [Compound 1-47]
- rate of killed insects (larvae) ([1]; 50 ppm): 100%
- rate of killed nymphs (nymphs of Myzus persicae; 50 ppm): 100%

Compound: CCc1cc(C(F)(F)C(F)(F)C(F)(F)F)cc(C)c1NC(=O)c1cccc(NC(=O)C(=O)N(C)CC(F)(F)F)c1 [Compound 2-3]
- rate of killed insects (larvae) ([1]; 12.5 ppm): 100%

Compound: CCc1cc(C(F)(C(F)(F)F)C(F)(F)F)cc(C)c1NC(=O)c1cccc(NC(=O)C(=O)N(C)C(C)(C)CC)c1 [Compound 1-46]
- rate of killed adults ([2]; 12.5 ppm): 100%

Compound: Cc1cc(C(F)(C(F)(F)F)C(F)(F)F)cc(C)c1NC(=O)c1cccc(NC(=O)C(=O)N(C)C(C)(C)C)c1 [Compound 1-28]
- rate of killed insects (larvae) ([1]; 5 ppm): 100%
- rate of killed adults ([2]; 5 ppm): 100%
- rate of killed nymphs (nymphs of Myzus persicae; 50 ppm): 100%

Compound: Cc1cc(C(F)(C(F)(F)F)C(F)(F)F)cc(C)c1NC(=O)c1cccc(NC(=O)C(=O)NCCBr)c1 [Compound 1-80]
- rate of killed insects (larvae) ([1]; 500 ppm): 100%

Compound: CCc1cc(C(F)(C(F)(F)F)C(F)(F)F)cc(C)c1NC(=O)c1cccc(NC(=O)C(=O)N(C)CCF)c1 [Compound 1-103, 3-(N-(2-fluoroethyl)-N-methylaminooxalylamino)-N-(2-ethyl-4-heptafluoroisopropyl-6-methyl)phenylbenzamide]
- rate of killed adults ([2]; 12.5 ppm): 100%

Compound: CCN(C)C(=O)C(=O)Nc1cccc(C(=O)Nc2c(C)cc(C(F)(C(F)(F)F)C(F)(F)F)cc2Br)c1 [Compound 1-62]
- rate of killed insects (larvae) ([1]; 12.5 ppm): 100%
- rate of killed insects (larvae) ([1]; 50 ppm): 100%
- rate of killed insects (larvae) ([1]; 500 ppm): 100%

Compound: CCc1cc(C(F)(C(F)(F)F)C(F)(F)F)cc(C)c1NC(=O)c1cccc(NC(=O)C(=O)N(CC)C(C)(C)C)c1 [Compound 1-50]
- rate of killed adults ([2]; 12.5 ppm): 100%

Compound: CCc1cc(C(F)(C(F)(F)F)C(F)(F)F)cc(C)c1NC(=O)c1cccc(NC(=O)C(=O)N(C)C2CCC2)c1 [Compound 1-45]
- rate of killed insects (larvae) ([1]; 12.5 ppm): 100%

Compound: Cc1cc(C(F)(C(F)(F)F)C(F)(F)F)cc(C)c1NC(=O)c1cccc(NC(=O)C(=O)N(C)C)c1 [Compound 1-21]
- rate of killed nymphs (nymphs of Myzus persicae; 50 ppm): 100%

Compound: Cc1cc(C(F)(C(F)(F)F)C(F)(F)F)cc(I)c1NC(=O)c1cccc(NC(=O)C(=O)N(C)C(C)(C)C)c1 [Compound 1-65]
- rate of killed nymphs (nymphs of Myzus persicae; 12.5 ppm): 100%

Compound: Cc1cc(C(F)(C(F)(F)F)C(F)(F)F)cc(C)c1NC(=O)c1cccc(NC(=O)C(=O)NC2CCCC2)c1 [Compound 1-19]
- rate of killed insects (larvae) ([1]; 50 ppm): 100%

Compound: CC(C)c1cc(C(F)(C(F)(F)F)C(F)(F)F)cc(Br)c1NC(=O)c1cccc(NC(=O)C(=O)N(C)CC(F)(F)F)c1 [Compound 1-96]
- rate of killed insects (larvae) ([1]; 12.5 ppm): 100%
- rate of killed adults ([2]; 12.5 ppm): 100%

Compound: CCc1cc(C(F)(C(F)(F)F)C(F)(F)F)cc(C)c1NC(=O)c1cccc(NC(=O)C(=O)N(CC)CC(F)(F)F)c1 [Compound 1-97]
- rate of killed nymphs (nymphs of Myzus persicae; 12.5 ppm): 100%

Compound: CCN(CC)C(=O)C(=O)Nc1cccc(C(=O)Nc2c(C)cc(C(F)(C(F)(F)F)C(F)(F)F)cc2C)c1 [Compound 1-30]
- rate of killed insects (larvae) ([1]; 50 ppm): 100%

Compound: Cc1cc(C(F)(C(F)(F)F)C(F)(F)F)cc(C)c1NC(=O)c1cccc(NC(=O)C(=O)N(C)C(C)C)c1 [Compound 1-24]
- rate of killed nymphs (nymphs of Myzus persicae; 50 ppm): 100%

Compound: COC(=O)C(=O)Nc1cccc(C(=O)Nc2c(C)cc(C(F)(C(F)(F)F)C(F)(F)F)cc2C)c1 [compound A, reference compound]
- insecticidal effect ([1]; comparative compounds, result in words, stated against the 500 ppm result): did not show any insecticidal effect
- insecticidal effect [2, 3]: did not show any insecticidal effect
- insecticidal effect (nymphs of Myzus persicae; [3]): did not show any insecticidal effect

Compound: CCc1cc(C(F)(C(F)(F)F)C(F)(F)F)cc(CC)c1NC(=O)c1cccc(NC(=O)C(=O)N(C)CC)c1 [Compound 1-57]
- rate of killed insects (larvae) ([1]; 5 ppm): 100%

Compound: Cc1cc(C(F)(C(F)(F)F)C(F)(F)F)ccc1NC(=O)c1cccc(NC(=O)C(=O)N(C)C)c1 [Compound 1-53]
- rate of killed insects (larvae) ([1]; 50 ppm): 100%

Compound: Cc1cc(C(F)(C(F)(F)F)C(F)(F)F)cc(C)c1NC(=O)c1cccc(NC(=O)C(=O)NCCCl)c1 [Compound 1-75]
- rate of killed insects (larvae) ([1]; 5 ppm): 100%

Compound: CCc1cc(C(F)(F)C(F)(F)C(F)(F)F)cc(C)c1NC(=O)c1cccc(NC(=O)C(=O)N(C)C(C)(C)C)c1 [Compound 2-2]
- rate of killed nymphs (nymphs of Myzus persicae; 12.5 ppm): 100%

Compound: COc1cc(C(F)(C(F)(F)F)C(F)(F)F)cc(Cl)c1NC(=O)c1cccc(NC(=O)C(=O)N(C)CC(F)(F)F)c1 [Compound 1-112]
- rate of killed insects (larvae) ([1]; 12.5 ppm): 100%
- rate of killed insects (larvae) ([1]; 50 ppm): 100%
- rate of killed adults ([2]; 50 ppm): 100%

Compound: Cc1cc(C(F)(C(F)(F)F)C(F)(F)Br)cc(C)c1NC(=O)c1cccc(NC(=O)C(=O)N(C)CC(F)(F)F)c1 (stereo not shown) [Compound 2-15]
- rate of killed nymphs (nymphs of Myzus persicae; 12.5 ppm): 100%

Compound: Cc1cc(C(F)(C(F)(F)F)C(F)(F)F)cc(C)c1NC(=O)c1cccc(NC(=O)C(=O)NCCCCl)c1 [Compound 1-83]
- rate of killed insects (larvae) ([1]; 50 ppm): 100%
